What all share (assay): DTP human tumour cell line panel, 48 h
Assay [1] relates to MOLT-4.
Assay [2] deals with SF-295.
Assay [3] relates to DU-145.
Assay [4] concerns MDA-N.
The test system of assay [5] is HOP-62.
In assay [6] the test system is BT-549.
The test system of assay [7] is CAKI-1.
Assay [8] concerns HT-29.
Assay [9] relates to Hs-578T.
The test system of assay [10] is COLO 205.
For assay [11], the system named is HCT-116.
Assay [12] relates to XF498.
The subject of assay [13] is M19-MEL.
Assay [14] concerns DLD-1.
In assay [15] the test system is KM-20L2.
Assay [16] deals with UACC-257.
Assay [17] concerns SNB-78.
Assay [18] relates to T47D.
For assay [19], the system named is MDA-MB-231.
For assay [20], the system named is TK-10.

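Five compound concentrations were applied to cells in 96-well plates for 48 hours; endpoints were derived by simple linear interpolation of the resulting dose-response curve. GI50: concentration for 50% inhibition of growth.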 Activity calls are given as the source filed them. Cut-off read from the data, not from the text of the source: active = GI50 up to about 1.1 µM and inactive = higher.

By GI50 is commonly meant the concentration giving 50% growth inhibition.

Take `COc1ccc2c(c1)C(=O)/C(=C/c1ccccc1)C2`: the GI50 is 16.3 µM (inactive) in assay [1]; > 100 µM (inactive) in [2]; > 100 µM (inactive) in [3]; 39 µM (inactive) in assay [4]; 29.6 µM (inactive) in assay [5]; 27.2 µM (inactive) in [6]. Further, the GI50 in assay [7] was 20.2 µM (inactive); in [8], 31.6 µM (inactive); in [9], > 100 µM (inactive).
For the compound `O=C1C=C(C2OC(CO)C(O)C2O)C(=O)N1` (centres undefined), the GI50 in assay [10] is 76.9 µM (inactive); in assay [11], > 100 µM (inactive); in assay [1], 45.6 µM (inactive); in assay [2] it was > 100 µM (inactive); in [12] it was < 0.01 µM (active); in assay [13], > 100 µM (inactive). The GI50 in assay [14] was > 85.3 µM (inactive); in assay [15] it was > 100 µM (inactive); in assay [16], > 100 µM (inactive); in [5] it was > 100 µM (inactive); in [8], > 100 µM (inactive); in [17], > 100 µM (inactive).
Turning to `CN(Cc1cnc2nc(N)nc(N)c2n1)c1ccc(C(=O)NC(CCC(=O)O)C(=O)O)cc1C(F)(F)F` (centres undefined), the GI50 in [10] is < 0.01 µM (active); in assay [1], < 0.01 µM (active); in assay [2], < 0.01 µM (active); in assay [3], < 0.01 µM (active); in assay [18], > 100 µM (inactive); in assay [19] it was > 23.1 µM (inactive). Also, the GI50 in [16] is 25.8 µM (inactive); in assay [20] it was > 78.3 µM (inactive); in [7] it was < 0.01 µM (active); in assay [8], < 0.01 µM (active); in [9], > 72.9 µM (inactive).
For `CCCCCCCSCC(O)COC(c1ccccc1)(c1ccccc1)c1ccccc1` (centres undefined), the GI50 was 39.8 µM (inactive) in assay [10]; 40.6 µM (inactive) in [11]; 28.4 µM (inactive) in [1]; 35.3 µM (inactive) in [2]; > 100 µM (inactive) in [3]; 32.7 µM (inactive) in assay [18]. Besides, the GI50 in assay [4] was 40.9 µM (inactive); in assay [19], > 100 µM (inactive); in assay [16], 34.5 µM (inactive); in assay [5], > 100 µM (inactive); in [20], 87.3 µM (inactive); in assay [6], 73.1 µM (inactive). Further, the GI50 is 60.4 µM (inactive) in assay [7], 19.7 µM (inactive) in assay [8] and 3.52 µM (inactive) in [9].
For the compound `C/C(=N\Oc1cc(Cl)ncn1)c1ccccn1`, the GI50 is > 100 µM (inactive) in [10]; > 100 µM (inactive) in assay [11]; 39.2 µM (inactive) in [1]; 63 µM (inactive) in assay [2]; 48.9 µM (inactive) in [3]; 30.2 µM (inactive) in assay [18]. For the same compound, the GI50 is > 100 µM (inactive) in [4]; 19.8 µM (inactive) in assay [19]; 99.8 µM (inactive) in [16]; 38.1 µM (inactive) in assay [5]; 59 µM (inactive) in assay [20]; 85.3 µM (inactive) in [6]. Further, the GI50 in assay [7] is 18.7 µM (inactive); in assay [8], 95.7 µM (inactive); in assay [9], 32.8 µM (inactive).
Consider `COc1ccc(CN2C(=O)C(=O)N(C)C2=O)c2ccccc12`, for which the GI50 in assay [10], in assay [11], in [1], in assay [2], in assay [3] and in [18] was > 10 µM (inactive) each time. In addition, the GI50 in [4] was 7.06 µM (inactive); in assay [19] it was > 10 µM (inactive); in assay [5] it was > 10 µM (inactive); in assay [20] it was > 10 µM (inactive); in assay [7], > 10 µM (inactive); in assay [8], > 10 µM (inactive). In addition, the GI50 in assay [9] was 1.55 µM (inactive).
Turning to `CN(C(=O)C1(C(=O)C=[N+]=[N-])CC1)c1ccccc1`, the GI50 in [10], in assay [11], in [1], in assay [2], in assay [3] and in assay [4] was > 100 µM (inactive) in each case. In addition, the GI50 in [19], in assay [16], in assay [5], in assay [20], in assay [6] and in assay [8] was > 100 µM (inactive) throughout. In addition, the GI50 in assay [9] was > 100 µM (inactive).
Take `CCOC(=O)c1csc(NC(=O)CCN2CCCC2)n1`: the GI50 in [10], in assay [1], in [2], in assay [3], in [18] and in assay [4] was > 100 µM (inactive) in each case. Moreover, the GI50 in assay [19], in [16], in assay [5], in [20], in assay [7] and in assay [8] was > 100 µM (inactive) each time.
In the case of `O=C1CC2(CCC(O)(c3cccs3)C(C(=O)c3cccs3)C2)C(=O)c2ccccc2N1` (centres undefined), the GI50 in assay [10] was 33.7 µM (inactive); in [11], 53 µM (inactive); in [1] it was 29 µM (inactive); in assay [2] it was > 100 µM (inactive); in assay [3] it was 67.3 µM (inactive); in [18], 18.2 µM (inactive). Besides, the GI50 in assay [4], in [19], in assay [16], in [5], in [20] and in assay [6] was > 100 µM (inactive) throughout. Further, the GI50 in assay [7] is > 100 µM (inactive); in assay [8], 40.6 µM (inactive); in [9], > 100 µM (inactive).
Consider `O=C(C[C@H](NC(=O)OCc1ccccc1)C(=O)NC1Cc2ccccc2OC1=O)OCc1ccccc1` (some centres undefined), for which the GI50 in [10] is > 100 µM (inactive); in [11], 29.2 µM (inactive); in assay [1], > 100 µM (inactive); in assay [3], 59.6 µM (inactive); in assay [18], 94.8 µM (inactive); in [4] it was > 100 µM (inactive). Also, the GI50 is 26.7 µM (inactive) in assay [19]; > 100 µM (inactive) in [5]; > 100 µM (inactive) in assay [6]; 70 µM (inactive) in [7]; > 100 µM (inactive) in assay [9].
For `CCOC(=O)NC(C(F)(F)F)(C(F)(F)F)P(=O)(OCC(C)C)OCC(C)C`, the GI50 in assay [10] is 10.2 µM (inactive); in [11] it was 2.55 µM (inactive); in [2], 24.8 µM (inactive); in [3], 35 µM (inactive); in assay [18], 23.8 µM (inactive); in [4], 6.04 µM (inactive). Moreover, the GI50 in [19] is 15.1 µM (inactive); in [5] it was 30 µM (inactive); in assay [20], 11.9 µM (inactive); in assay [6], 13.2 µM (inactive); in assay [7], 27.9 µM (inactive); in [8] it was 11.5 µM (inactive). For the same compound, the GI50 in assay [9] is 14.9 µM (inactive).

(Values after ChEMBL document CHEMBL1201862, “PubChem BioAssay data set” (2004).)
